{"source": "patent US20160067211A1", "about": "“PHARMACEUTICAL COMPOSITION” (Eberhard Karls Universitaet Tuebingen Medizinische Fakultaet, priority 2013, published 2016)", "key": {"[1]": {"tested_on": "SK-MEL-28 melanoma cells", "test": "Real time cell monitoring assay (xCELLigence), SK-MEL-28", "type": "cell-based, human", "conditions": "SK-MEL-28, 20, 50 and 100 μM, 104 hours, vs. control", "method": "FIG. 5: real time cell monitoring of BLM and SK-MEL-28 melanoma cells treated with 6-PN and 8-PN. (A) BML and SK-MEL-28 cells were treated 24 hours after seeding with different concentrations of 6-PN and 8-PN (20 μM, 50 μM and 100 μM) over a 104 hour time period. The cellular impedance was measured over the entire observation time using the xCELLigence™ SP system and is depicted by the cell index (CI). All CI-values were normalized shortly before the treatment started. […] As a positive control, Triton X-100 0.1% was used to induce cell death. Shown are the mean±SD of three independent experiments, each performed in triplicates (B, C). […]\nThe human melanoma cell lines BLM and SK-MEL-28 (2.5×10^3 cells/well) were seeded in 96 well plates. The cells were treated after 24 hours with different concentrations of 6-PN or 8-PN (20 μM, 50 μM and 100 μM) and monitored by measurements of electrical impedance in 15 minutes intervals for an overall time span of in total 104 hours using the xCELLigencer® SP Systems (Roche Applied Science). The cell index values were calculated using the RTCA software (1.0.0.0805). […]\nThe human metastatic melanoma cell lines BLM and SK-MEL-28 were treated once with rising concentrations of 6-PN or 8-PN (20 μM, 50 μM and 100 μM) and monitored continuously for an overall time span of 104 hours using a real time monitoring assay (FIG. 5A). […]"}, "[2]": {"tested_on": "primary human fibroblasts (FF868)", "test": "MUH proliferation assay, fibroblasts", "type": "cell-based", "conditions": "6-PN, 8-PN 0.1 μM to 100 μM; TSA, SAHA 100 μM", "method": "FIG. 5: real time cell monitoring of BLM and SK-MEL-28 melanoma cells treated with 6-PN and 8-PN. (A) BML and SK-MEL-28 cells were treated 24 hours after seeding with different concentrations of 6-PN and 8-PN (20 μM, 50 μM and 100 μM) over a 104 hour time period. The cellular impedance was measured over the entire observation time using the xCELLigence™ SP system and is depicted by the cell index (CI). All CI-values were normalized shortly before the treatment started. […] As a positive control, Triton X-100 0.1% was used to induce cell death. Shown are the mean±SD of three independent experiments, each performed in triplicates (B, C). […] Shown are the mean±SD; the experiments were performed in quadruplicates. (D) The MUH proliferation assay was repeated unter the same treatment conditions on primary human fibroblasts (FF868) and melanocytes (HEM1).\nThe cells were seeded in triplicates in 96-well plates at a density of 2,500 cells per well in 50 μl medium (5×10^4 cells per milliliter). After 24 hours, the medium was replaced by medium containing 6-PN, 8-PN (dissolved in DMSO), TSA (dissolved in EtOH) or SAHA (dissolved in DMSO) at the concentrations to be tested with or without the addition of the necrosis inhibitor IM-54 at 5 μM (Calbiochem, Darmstadt, Germany). Cells treated with culture medium without or with DMSO served as controls. The assay was started following an incubation of 24 hours. […] Plates were incubated at 37° C. for 1 hour and measured in a Fluoroskan II (Lab Systems, Helsinki, Finland) with a […]. The intensity of fluorescence indicates the number of viable cells in the wells.\nNext it was asked whether the PNs also influence the proliferation of benign cells. To this end, human fibroblasts (FF) and foreskin melanocytes (HEM1) were treated with the same concentrations of 6-PN and 8-PN, and proliferation was assessed using the proliferation assay as described above."}, "[3]": {"tested_on": "LC3 in SK-MEL-28 melanoma cells", "test": "Western blot LC3 (autophagy), SK-MEL-28", "type": "cell-based, human", "conditions": "SK-MEL-28, 100 μM, after 12-24 hours", "method": "(A) Cell cycle FACS analyses of PI stained BLM and SK-MEL-28 melanoma cells. 100 μM of 8-PN-induced a G2 arrest in both cells. (B) FACS analyses of BLM and SK-MEL-28 melanoma cells treated with 100 μM 6-PN or 8-PN and stained for annexin V/PI; staurosporin was used as control for apoptosis induction and DMSO as vehicle control. […] (C) BLM and SK-MEL-28 melanoma cells were treated with 100 μM of PNs; TSA, SAHA and EMSO were used as controls.\nThe following antibodies were used: Anti-Vinculin and Anti-Actin (1:5000, Sigma-Aldrich), Anti-Acetyl-Histon H3 (1:5000, Millipore, Billerica, USA), Anti-Caspase-3 (1:1000), Anti-AKT, Anti-pAKT, Anti-ERK, Anti-pERK, […], Anti-p70S6 Kinase, and Anti-pS6 protein (1:1000), all from Cell Signaling, Frankfurt, Germany), Anti-LC3 (1:5000, Sigma-Aldrich).\nSince it has been speculated that the formation of intracytoplasmic vacuoles in pancreatic or breast cancer cells by 6-PN and 8-PN observed in pervious studies might represent an induction of autophagy, this issue was further investigated on a molecular level. BLM and SK-MEL-28 melanoma cells were treated with 100 μM of 6-PN, 8-PN, SAHA or TSA (and with DMSO as control), and the treated cells were lysed for protein extraction after 1 hour, 2 hours, 4 hours, 12 hours and 24 hours. […]"}, "[4]": {"tested_on": "angiogenesis", "conditions": "chorioallantois membrane assays in vivo; cited from earlier work"}, "[5]": {"target": "P-glycoprotein (Homo sapiens, UniProt P08183)", "sequence (P08183 whole entry)": "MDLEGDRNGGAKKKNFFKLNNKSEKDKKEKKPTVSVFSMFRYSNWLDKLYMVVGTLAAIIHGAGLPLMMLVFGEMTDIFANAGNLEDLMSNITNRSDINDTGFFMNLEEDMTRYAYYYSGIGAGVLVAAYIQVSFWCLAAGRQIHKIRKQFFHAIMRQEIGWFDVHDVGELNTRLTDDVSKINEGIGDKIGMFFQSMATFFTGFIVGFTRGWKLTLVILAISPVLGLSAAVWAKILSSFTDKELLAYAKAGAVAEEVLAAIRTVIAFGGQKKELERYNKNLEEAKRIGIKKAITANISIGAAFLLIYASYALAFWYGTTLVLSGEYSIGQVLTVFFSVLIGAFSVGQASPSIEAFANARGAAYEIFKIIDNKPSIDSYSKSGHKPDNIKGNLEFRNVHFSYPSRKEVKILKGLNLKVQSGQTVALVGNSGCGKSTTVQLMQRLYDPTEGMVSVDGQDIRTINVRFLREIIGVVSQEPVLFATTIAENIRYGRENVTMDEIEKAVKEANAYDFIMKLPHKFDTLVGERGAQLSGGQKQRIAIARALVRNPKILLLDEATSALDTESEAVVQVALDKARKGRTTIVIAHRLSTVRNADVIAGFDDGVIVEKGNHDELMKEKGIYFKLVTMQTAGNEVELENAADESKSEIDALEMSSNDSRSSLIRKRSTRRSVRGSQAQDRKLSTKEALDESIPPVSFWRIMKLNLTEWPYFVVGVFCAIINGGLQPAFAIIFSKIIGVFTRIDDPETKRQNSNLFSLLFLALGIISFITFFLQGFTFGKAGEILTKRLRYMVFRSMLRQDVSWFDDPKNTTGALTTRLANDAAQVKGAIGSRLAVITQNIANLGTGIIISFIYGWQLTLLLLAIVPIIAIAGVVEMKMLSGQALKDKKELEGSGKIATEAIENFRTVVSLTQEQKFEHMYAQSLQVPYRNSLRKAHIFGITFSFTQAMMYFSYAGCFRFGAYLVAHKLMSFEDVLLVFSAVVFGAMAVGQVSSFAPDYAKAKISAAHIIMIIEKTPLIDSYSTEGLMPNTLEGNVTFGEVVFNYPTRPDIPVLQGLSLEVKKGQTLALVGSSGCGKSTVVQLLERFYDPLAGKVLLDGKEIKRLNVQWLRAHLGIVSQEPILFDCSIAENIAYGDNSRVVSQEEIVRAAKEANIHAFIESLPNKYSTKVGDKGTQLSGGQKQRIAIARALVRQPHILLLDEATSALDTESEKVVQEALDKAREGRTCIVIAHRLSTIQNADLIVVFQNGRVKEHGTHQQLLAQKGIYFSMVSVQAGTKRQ", "conditions": "cited from earlier work"}, "[6]": {"tested_on": "prostate cancer cell line DU145", "conditions": "DU145 in vitro; cited from earlier work"}}, "data": [{"smiles": "CC(C)=CCc1c(O)cc(O)c2c1OC(c1ccc(O)cc1)CC2=O", "note": "(stereo not drawn) [8-PN, 5,7-Dihydroxy-2-(4-hydroxy-phenyl)-8-(3-methyl-but-2-enyl)-chroman-4-one]", "values": [{"measurement": "normalized cell index (CI)", "setting": "[1]", "result": "descended over time"}, {"measurement": "fibroblast proliferation", "setting": "[2]", "result": "hardly affected"}, {"measurement": "shift from LC3-I to LC3-II (autophagy)", "setting": "[3]", "result": "clearly induced the shift"}, {"measurement": "angiogenesis", "setting": "[4]", "result": "inhibits the angiogenesis"}, {"measurement": "inhibition of the P-glycoprotein", "setting": "[5]", "result": "inhibition"}, {"measurement": "antiproliferative effects", "setting": "[6]", "result": "antiproliferative effects"}]}]}
